The structures appear in SMILES notation. Like-named read-outs stand apart in the source and are kept apart here.

For the assay, the target named is T1, human DGAT2 (hDGAT2) (Homo sapiens, UniProt Q96PD7).
T1 construct: made in house; host or cells: Sf-9 insect cells (baculovirus), membrane fraction
T1 sequence (Q96PD7 1-388): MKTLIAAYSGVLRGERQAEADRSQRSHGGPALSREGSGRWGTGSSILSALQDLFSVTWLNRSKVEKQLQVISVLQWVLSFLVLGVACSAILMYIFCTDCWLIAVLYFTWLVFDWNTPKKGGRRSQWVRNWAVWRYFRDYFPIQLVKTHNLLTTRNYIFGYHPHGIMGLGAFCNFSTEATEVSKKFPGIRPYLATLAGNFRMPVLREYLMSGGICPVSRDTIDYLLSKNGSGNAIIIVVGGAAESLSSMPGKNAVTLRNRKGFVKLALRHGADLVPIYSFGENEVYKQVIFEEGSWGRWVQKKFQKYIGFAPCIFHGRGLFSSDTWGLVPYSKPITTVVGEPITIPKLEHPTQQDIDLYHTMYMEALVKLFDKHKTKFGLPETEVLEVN
In words: DGAT2 Enzymatic Activity Assay. The assay is classed as biochemical. Conditions: membrane prep of Sf-9 cells expressing hDGAT2, 25 μM diolein, 5 μM 13C oleoyl-CoA, 13C18-triolein by LC/MS/MS. Put shortly:
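Membranes from Sf-9 cells expressing untagged human DGAT2 (8 ng/μL) incubated at rt in 100 mM Tris·Cl pH 7.0, 20 mM MgCl2, 5% ethanol with 25 μM diolein and 5 μM 13C oleoyl-CoA. 13C18-triolein product quantified by LC/MS/MS against 13C21-triolein internal standard; IC50 by 4-parameter fit.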

Consider `CC(C)n1c(=O)n(-c2cccc(OC(F)F)c2)c2c(F)cc(C(=O)N[C@@]3(C)CCS(=O)(=O)C3)cc21` [Example 109, 1-[3-(difluoromethoxy)phenyl]-7-fluoro-3-isopropyl-N-[(3S)-3-methyl-1,1-dioxo-thiolan-3-yl]-2-oxo-benzimidazole-5-carboxamide], for which the concentration for half-maximal inhibition (IC50) (read-out: DGAT2 IC50) was 9 nM.

On to `CC(C)n1c(=O)n(-c2cccc(OC(F)F)c2)c2ccc(C(=O)N[C@H]3CCCC[C@@H]3O)cc21` [Example 35, 1-[3-(difluoromethoxy)phenyl]-N-[(1S,2S)-2-hydroxycyclohexyl]-3-isopropyl-2-oxo-benzimidazole-5-carboxamide], for which the IC50 (read-out: DGAT2 IC50) was 71 nM.

As to `C[C@@]1(NC(=O)c2ccc3c(c2)n(-c2ccc(F)cc2)c(=O)n3-c2ccc(F)cc2)CCS(=O)(=O)C1` [Example 1, (R)-1,3-bis(4-fluorophenyl)-N-(3-methyl-1,1-dioxidotetrahydrothiophen-3-yl)-2-oxo-2,3-dihydro-1H-benzo[d]imidazole-5-carboxamide], the IC50 (read-out: Human DGAT2 IC50) was 573 nM.

As for `CC(C(N)=O)n1c(=O)n(-c2cccc(OC(F)F)c2)c2ccc(C(=O)NC3(C)CCS(=O)(=O)CC3)cc21` (single isomer, unassigned) [EX-85b, 3-(1-amino-1-oxopropan-2-yl)-1-(3-(difluoromethoxy)phenyl)-N-(4-methyl-1,1-dioxidotetrahydro-2H-thiopyran-4-yl)-2-oxo-2,3-dihydro-1H-benzo[d]imidazole-5-carboxamide], the IC50 (read-out: Human DGAT2 IC50) worked out at 1750 nM.

In the case of `CC(n1c(=O)n(-c2cc(OCC(F)F)ncc2F)c2ccc(C(=O)NC3(C)CCS(=O)(=O)CC3)cc21)C(C)(C)O` (single isomer, unassigned) [Example 72b, 1-(2-(2,2-difluoroethoxy)-5-fluoropyridin-4-yl)-3-(3-hydroxy-3-methylbutan-2-yl)-N-(4-methyl-1,1-dioxidotetrahydro-2H-thiopyran-4-yl)-2-oxo-2,3-dihydro-1H-benzo[a]imidazole-5-carboxamide], under “read-out: DGAT2 IC50”, the IC50 came to 6.6 nM.

For `CCOc1cccc(-n2c(=O)n(C(C)C)c3cc(C(=O)NC4(C)CS(=O)(=O)C4)cnc32)c1` [Example 96, 3-(3-ethoxyphenyl)-1-isopropyl-N-(3-methyl-1,1-dioxo-thietan-3-yl)-2-oxo-imidazo[4,5-b]pyridine-6-carboxamide], the 50% inhibitory concentration (IC50) (read-out: DGAT2 IC50) came to 93 nM.

Take `CCOc1cc(-n2c(=O)n(C(C)C)c3cc(C(=O)NC4(C(F)F)CCS(=O)(=O)CC4)c(F)cc32)c(F)cn1` [Example 117, N-(4-(difluoromethyl)-1,1-dioxidotetrahydro-2H-thiopyran-4-yl)-1-(2-ethoxy-5-fluoropyridin-4-yl)-6-fluoro-3-isopropyl-2-oxo-2,3-dihydro-1H-benzo[d]imidazole-5-carboxamide]: the concentration for half-maximal inhibition (IC50) (read-out: DGAT2 IC50) amounted to 27 nM.

For the compound `CCOc1cc(-n2c(=O)n(C(C)C(C)(C)O)c3cc(C(=O)NC4(C)CS(=O)(=O)C4)ccc32)c(F)cn1` (single isomer, unassigned) [Example 78b, 1-(2-ethoxy-5-fluoropyridin-4-yl)-3-(3-hydroxy-3-methylbutan-2-yl)-N-(3-methyl-1,1-dioxidothietan-3-yl)-2-oxo-2,3-dihydro-1H-benzo[d]imidazole-5-carboxamide], under “read-out: DGAT2 IC50”, the IC50 stood at 13 nM.

Regarding `CC(C)n1c(=O)n(-c2cccc(OC(F)F)c2)c2ncc(C(=O)NC3(C)CS(=O)(=O)C3)cc21` [Example 104, 3-[3-(difluoromethoxy)phenyl]-1-isopropyl-N-(3-methyl-1,1-dioxo-thietan-3-yl)-2-oxo-imidazo[4,5-b]pyridine-6-carboxamide], the IC50 (read-out: DGAT2 IC50) was determined as 94 nM.

As for `CC(n1c(=O)n(-c2cccc(OC(F)F)c2)c2ccc(C(=O)NC3(C)CCS(=O)(=O)CC3)cc21)C(C)(C)O` (single isomer, unassigned) [Example 67b, 1-(3-(difluoromethoxy)phenyl)-3-(3-hydroxy-3-methylbutan-2-yl)-N-(4-methyl-1,1-dioxidotetrahydro-2H-thiopyran-4-yl)-2-oxo-2,3-dihydro-1H-benzo[d]imidazole-5-carboxamide], the 50% inhibitory concentration (IC50) (read-out: DGAT2 IC50) came out at 211 nM.

Consider `CC(C)n1c(=O)n(-c2cccc(OC(F)(F)F)c2)c2ncc(C(=O)NC3(C)CS(=O)(=O)C3)cc21` [Example 91, 1-isopropyl-N-(3-methyl-1,1-dioxo-thietan-3-yl)-2-oxo-3-[3-(trifluoromethoxy)phenyl]imidazo[4,5-b]pyridine-6-carboxamide], for which the IC50 (read-out: DGAT2 IC50) turned out to be 355 nM.

For the compound `CC1(NC(=O)c2ccc3c(c2)n(CC(F)(F)F)c(=O)n3-c2cccc(OC(F)F)c2)CS(=O)(=O)C1` [Example 43, 1-(3-(Difluoromethoxy)phenyl)-N-(3-methyl-1,1-dioxidothietan-3-yl)-2-oxo-3-(2,2,2-trifluoroethyl)-2,3-dihydro-1H-benzo[d]imidazole-5-carboxamide], the half-maximal inhibitory concentration (IC50) (read-out: DGAT2 IC50) is 202 nM.

For the compound `CC(C)n1c(=O)n(-c2cccc(OC(F)F)c2)c2ccc(C(=O)N[C@]3(C)CCS(=O)(=O)C3)c(F)c21` [Example 125, (R)-1-(3-(Difluoromethoxy)phenyl)-4-fluoro-3-isopropyl-N-(3-methyl-1,1-dioxidotetrahydrothiophen-3-yl)-2-oxo-2,3-dihydro-1H-benzo[d]imidazole-5-carboxamide], where the note is “read-out: DGAT2 IC50”, the IC50 is 203 nM.

Turning to `CC1(NC(=O)c2cnc3c(c2)n(-c2ccc(F)cc2)c(=O)n3-c2cccc(OC(F)F)c2)CS(=O)(=O)C1` [Example 4, 3-(3-(difluoromethoxy)phenyl)-1-(4-fluorophenyl)-N-(3-methyl-1,1-dioxidothietan-3-yl)-2-oxo-2,3-dihydro-1H-imidazo[4,5-b]pyridine-6-carboxamide], the IC50 (read-out: Human DGAT2 IC50) is 8.5 nM.

Turning to `CC(n1c(=O)n(-c2cc(OCC(F)F)ccc2F)c2ccc(C(=O)NC3(C)CCS(=O)(=O)CC3)cc21)C(C)(C)O` (single isomer, unassigned) [Example 73a, 1-(5-(2,2-difluoroethoxy)-2-fluorophenyl)-3-(3-hydroxy-3-methylbutan-2-yl)-N-(4-methyl-1,1-dioxidotetrahydro-2H-thiopyran-4-yl)-2-oxo-2,3-dihydro-1H-benzo[a]imidazole-5-carboxamide], under “read-out: DGAT2 IC50”, the IC50 came out at 2.6 nM.

Consider `CC(C)n1c(=O)n(-c2cccc(OC(F)F)c2)c2ccc(C(=O)N[C@H]3CCCC(F)(F)[C@@H]3O)cc21` [Example 30, N-[(1S,2R)-3,3-difluoro-2-hydroxy-cyclohexyl]-1-[3-(difluoromethoxy)phenyl]-3-isopropyl-2-oxo-benzimidazole-5-carboxamide], for which the IC50 (read-out: DGAT2 IC50) was 31 nM.

Turning to `CC(C)n1c(=O)n(-c2cccc(C#N)c2)c2ccc(C(=O)NC3(C)CCS(=O)(=O)CC3)cc21` [Example 52, 1-(3-cyanophenyl)-3-isopropyl-N-(4-methyl-1,1-dioxidotetrahydro-2H-thiopyran-4-yl)-2-oxo-2,3-dihydro-1H-benzo[d]imidazole-5-carboxamide], under “read-out: DGAT2 IC50”, the IC50 was more than 9990 nM.

For `CC(C)n1c(=O)n(-c2cccc(OC(F)(F)C(F)F)c2)c2ncc(C(=O)N[C@]3(C)CCS(=O)(=O)C3)cc21` [Example 95, 1-isopropyl-N-[(3R)-3-methyl-1,1-dioxo-thiolan-3-yl]-2-oxo-3-[3-(1,1,2,2-tetrafluoroethoxy)phenyl]imidazo[4,5-b]pyridine-6-carboxamide], under “read-out: DGAT2 IC50”, the 50% inhibitory concentration (IC50) worked out at 23 nM.

`CCn1c(=O)n(-c2cccc(OC(F)F)c2)c2ccc(C(=O)NC3(C)CCS(=O)(=O)CC3)cc21` [Example 39, 1-(3-(Difluoromethoxy)phenyl)-3-ethyl-N-(4-methyl-1,1-dioxidotetrahydro-2H-thiopyran-4-yl)-2-oxo-2,3-dihydro-1H-benzo[d]imidazole-5-carboxamide]: the IC50 (read-out: DGAT2 IC50) was 109 nM.

In the case of `CCOc1cc(-n2c(=O)n(C(C)C(C)(C)O)c3cc(C(=O)NC4(C)CS(=O)(=O)C4)ccc32)c(F)cn1` (single isomer, unassigned) [Example 78a, 1-(2-ethoxy-5-fluoropyridin-4-yl)-3-(3-hydroxy-3-methylbutan-2-yl)-N-(3-methyl-1,1-dioxidothietan-3-yl)-2-oxo-2,3-dihydro-1H-benzo[d]imidazole-5-carboxamide], where the note is “read-out: DGAT2 IC50”, the IC50 came out at 123 nM.

Regarding `CC(C)n1c(=O)n(-c2cc(OC(F)(F)C(F)F)ccn2)c2cc(F)c(C(=O)NC3(C)CCS(=O)(=O)CC3)cc21` [Example 118, 6-fluoro-3-isopropyl-N-(4-methyl-1,1-dioxidotetrahydro-2H-thiopyran-4-yl)-2-oxo-1-(4-(1,1,2,2-tetrafluoroethoxy)pyridin-2-yl)-2,3-dihydro-1H-benzo[d]imidazole-5-carboxamide], the IC50 (read-out: DGAT2 IC50) is 5.5 nM.

Consider `CC(C)Oc1cccc(-n2c(=O)n(C(C)C)c3cc(C(=O)NC4(C)CS(=O)(=O)C4)cnc32)c1` [Example 100, 3-(3-isopropoxyphenyl)-1-isopropyl-N-(3-methyl-1,1-dioxo-thietan-3-yl)-2-oxo-imidazo[4,5-b]pyridine-6-carboxamide], for which the IC50 (read-out: DGAT2 IC50) was 692 nM.

As for `CCn1c(=O)n(-c2cccc(OC(F)F)c2)c2ccc(C(=O)NC3(C)CS(=O)(=O)C3)cc21` [Example 40, 1-(3-(Difluoromethoxy)phenyl)-3-ethyl-N-(3-methyl-1,1-dioxidothietan-3-yl)-2-oxo-2,3-dihydro-1H-benzo[d]imidazole-5-carboxamide], the IC50 (read-out: DGAT2 IC50) stood at 194 nM.

By IC50 is commonly meant the midpoint of a concentration-inhibition curve.

Values taken from US11976061B2, “Preparation of benzimidazolone derivatives as novel diacylglyceride O-acyltransferase 2 inhibitors” (Merck Sharp & Dohme LLC, priority 2020, dated 2024).
